In data set [1] the test system is rat cerebral synaptosomes. Put plainly: Membrane integrity by LDH release assay. The data set is classed as cell-based. As to conditions: for IC50: 40 min exposure, LDH release as percentage of total LDH (Triton X-100 lysis); for Maximal effect (plateau) of LDH release: percentage of total LDH content. The protocol:
Adult male Wistar rats purchased from Toxi-Coop Ltd. (Budapest, Hungary) were used in the experiments. Cerebral synaptosomes were prepared according to Modi and co-workers with the following modifications. Animals were decapitated and the brain was removed rapidly. Isotonic sucrose buffer (0.32 M sucrose, 4 mM HEPES-NaOH, pH 7.4) was used to homogenize the cerebrum with a Potter S Homogenizer (B. Braun, Melsungen, Germany) with 15 strokes at 1000 rpm. The homogenate was centrifuged (1500× g, 10 min, 4 °C) and the pellet was resuspended in sucrose buffer and centrifuged with the same parameters again. The two supernatants were combined and centrifuged (20,000× g, 10 min, 4 °C) to pellet the crude synaptosomes. […] Synaptosomes were stored frozen using cryopreservation buffer and the slow freezing method to preserve their physiological state and integrity. Briefly, synaptosome pellets were resuspended in isotonic sucrose buffer containing 10% DMSO (v/v) and 10% FBS (v/v). To slow down the freezing process at −80 °C, synaptosomes were placed in a 3 cm thick-walled polystyrene box with a lid. Synaptosomes were stored at −80 °C until use. Immediately prior to the experiments, synaptosomes were rapidly thawed in a 37 °C water bath and pelleted by centrifugation (20,000× g, 10 min, 4 °C) to remove the cryopreservation buffer. […] For all types of experiments, except for the glutamate release measurements, vehicle-treated (control) and CD-treated synaptosomes were incubated in 500 μL HEPES-glucose buffer with or without CDs, respectively, for 40 min at 37 °C. […] After incubation, the synaptosomes were centrifuged (20,000× g, 5 min, 4 °C) and used immediately for further analysis. A slightly different incubation method used in the glutamate release measurements is described in the corresponding section. Across all types of experiments, osmolarities of the CD solutions were adjusted and they were between 290 and 310 mOsm. At least three parallel measurements were carried out. The membrane integrity of the synaptosomes was measured by the CytoTox-ONE Homogeneous Membrane Integrity Assay (Promega, Madison, WI, USA) with minor modifications. The assay measures the release of the lactate dehydrogenase (LDH) enzyme from synaptosomes with damaged membranes. […] Both the supernatant and lysis samples were diluted 10-fold. The LDH activity was then assessed according to the manufacturer’s instructions and the fluorescence was measured by a Varioskan LUX multimode microplate reader (Thermo Fisher Scientific) at 530/590 nm.
Background: LDH in the medium is a marker of cell lysis.

Data set [2] has as its system rat cerebral synaptosomes. The experiment in a line: Resazurin reduction viability assay. As to conditions: for IC50 / Concentration with significant decrease in viability / metabolic activity: 40 min exposure; for IC50: percentage of vehicle-treated synaptosomes; for Concentration with significant decrease in viability / metabolic activity: resazurin reduction. The data set is classed as cell-based. As for the experimental part: Adult male Wistar rats purchased from Toxi-Coop Ltd. (Budapest, Hungary) were used in the experiments. Cerebral synaptosomes were prepared according to Modi and co-workers with the following modifications. Animals were decapitated and the brain was removed rapidly. Isotonic sucrose buffer (0.32 M sucrose, 4 mM HEPES-NaOH, pH 7.4) was used to homogenize the cerebrum with a Potter S Homogenizer (B. Braun, Melsungen, Germany) with 15 strokes at 1000 rpm. The homogenate was centrifuged (1500× g, 10 min, 4 °C) and the pellet was resuspended in sucrose buffer and centrifuged with the same parameters again. The two supernatants were combined and centrifuged (20,000× g, 10 min, 4 °C) to pellet the crude synaptosomes. […] Synaptosomes were stored frozen using cryopreservation buffer and the slow freezing method to preserve their physiological state and integrity. Briefly, synaptosome pellets were resuspended in isotonic sucrose buffer containing 10% DMSO (v/v) and 10% FBS (v/v). To slow down the freezing process at −80 °C, synaptosomes were placed in a 3 cm thick-walled polystyrene box with a lid. Synaptosomes were stored at −80 °C until use. Immediately prior to the experiments, synaptosomes were rapidly thawed in a 37 °C water bath and pelleted by centrifugation (20,000× g, 10 min, 4 °C) to remove the cryopreservation buffer. […] For all types of experiments, except for the glutamate release measurements, vehicle-treated (control) and CD-treated synaptosomes were incubated in 500 μL HEPES-glucose buffer with or without CDs, respectively, for 40 min at 37 °C. […] After incubation, the synaptosomes were centrifuged (20,000× g, 5 min, 4 °C) and used immediately for further analysis. A slightly different incubation method used in the glutamate release measurements is described in the corresponding section. Across all types of experiments, osmolarities of the CD solutions were adjusted and they were between 290 and 310 mOsm. At least three parallel measurements were carried out. Viability of the rat cerebral synaptosomes was measured by the Resazurin Cell Viability Kit (Cell Signaling Technology Inc., Danvers, MA, USA) with minor modifications. The assay was based on the reduction in the nonfluorescent resazurin to highly fluorescent resorufin by intracellular dehydrogenase enzymes. Briefly, after CD treatments, 2 mg of the synaptosomes were centrifuged (20,000× g, 5 min, 4 °C) and the supernatant was discarded. […] After 25 min of incubation, synaptosomes were centrifuged (20,000× g, 5 min, 4 °C). Fluorescence of the supernatant was measured with a Varioskan LUX multimode microplate reader (Thermo Fisher Scientific) at 530/590 nm. Viability of the CD-treated synaptosomes was calculated as the percentage of vehicle-treated control synaptosomes.
On the technique in general: Resazurin is reduced to fluorescent resorufin, in cell work by metabolically active cells.

The test system of data set [3] is rat cerebral synaptosomes. The experiment in a line: Basal and 4-aminopyridine-evoked glutamate release from synaptosomes (CE-LIF). The data set is classed as cell-based. To be noted: 10 mM DIMEB, 33 mM HPBCD, 26 mM RAMEA, 85 mM HPACD; 40 min exposure; 1 mM 4-AP, 8 min. As for the experimental part: After thawing and centrifugation, the cryopreserved synaptosomes were resuspended in isotonic HEPES-glucose buffer. Synaptosomal suspensions corresponding to 10 mg of synaptosomes were centrifuged to an 8-well strip plate (15 min, 2500× g, 4 °C) and the supernatant was discarded. Vehicle-treated (control) and CD-treated synaptosomes were incubated in 200 μL HEPES-glucose buffer with or without CDs, respectively, for 40 min at 37 °C. […] After incubation, the supernatant was replaced with fresh HEPES-glucose buffer containing 40 µM DL-TBOA (a competitive, non-transportable blocker of excitatory amino acid transporters that inhibits the reuptake of released glutamate) and equilibrated for 2 × 10 min at 37 °C with buffer replacement. After equilibration, the buffer was replaced by fresh HEPES-glucose buffer in the case of unstimulated groups. […] Following stimulation, aliquots were taken from the buffer at 8 min and stored at −20 °C until CE analysis. The glutamate content of the aliquots was analyzed by a capillary electrophoresis-laser induced fluorescence method developed in our laboratory. Briefly, samples were subjected to derivatization with NBD-F (1 mg/mL final concentration) in 20 mM borate buffer, pH 8.5 for 20 min at 65 °C. […] Glutamate release was normalized to the baseline release from the vehicle-treated, unstimulated synaptosomes. Data were analyzed by GraphPad Prism 8 (GraphPad Software, La Jolla, CA, USA). Concentration–response curves were constructed by the nonlinear regression method. One-way ANOVA followed by Bonferroni’s post hoc test was used for the data analysis in the case of the glutamate release experiments. All data are presented as means ± SEM of at least three parallel measurements. Differences were considered significant if p < 0.05.

Data set [4] relates to GM2 and GM3 immunoreactivity. Further details: method as in PMID 27231706. As to conditions: NPC mouse model; cited from earlier work.

This is an account of results in article PMC9409351, “Differential Ganglioside and Cholesterol Depletion by Various Cyclodextrin Derivatives and Their Effect on Synaptosomal Glutamate Release” (International Journal of Molecular Sciences, 2022).

A word on the IC50: it is the midpoint of a concentration-inhibition curve. Lower therefore signals greater potency in that assay.

In the case of `COC[C@H]1O[C@@H]2O[C@H]3[C@H](O)[C@@H](OC)[C@@H](O[C@H]4[C@H](O)[C@@H](OC)[C@@H](O[C@H]5[C@H](O)[C@@H](OC)[C@@H](O[C@H]6[C@H](O)[C@@H](OC)[C@@H](O[C@H]7[C@H](O)[C@@H](OC)[C@@H](O[C@H]8[C@H](O)[C@@H](OC)[C@@H](O[C@H]1[C@H](O)[C@H]2OC)O[C@@H]8COC)O[C@@H]7COC)O[C@@H]6COC)O[C@@H]5COC)O[C@@H]4COC)O[C@@H]3COC` [DIMEB, heptakis(2,6-di-O-methyl)-beta-cyclodextrin], in data set [1], 18.3 mM corresponded to half-maximal inhibition (IC50) and the “Maximal effect (plateau) of LDH release” value is “about 60%”. The “Viability at 60 mM” value in data set [2] (60 mM) was “total loss of viability”. In addition, in data set [2], the IC50 amounted to 26.5 mM and the “Concentration with significant decrease in viability / metabolic activity” value was “higher than 10 mM”. In addition, in data set [3], the “4-AP-evoked (stimulated) glutamate release” value (“4-AP-evoked” below) was “not detected”.
As to `CC(O)COC[C@H]1O[C@@H]2O[C@H]3[C@H](O)[C@@H](O)[C@@H](O[C@H]4[C@H](O)[C@@H](O)[C@@H](O[C@H]5[C@H](O)[C@@H](O)[C@@H](O[C@H]6[C@H](O)[C@@H](O)[C@@H](O[C@H]7[C@H](O)[C@@H](O)[C@@H](O[C@H]8[C@H](O)[C@@H](O)[C@@H](O[C@H]1[C@H](O)[C@H]2O)O[C@@H]8COCC(C)O)O[C@@H]7COCC(C)O)O[C@@H]6COCC(C)O)O[C@@H]5COCC(C)O)O[C@@H]4COCC(C)O)O[C@@H]3COCC(C)O` (stereo partly drawn) [HPBCD, (2-hydroxypropyl)-beta-cyclodextrin], the IC50 is 31 mM in data set [1] (Rattus norvegicus, 40 min) and more than 100 mM in data set [2] (Rattus norvegicus, 40 min). The “Maximal effect (plateau) of LDH release” value in data set [1] came out at 43%. For the same molecule, the “Concentration with significant decrease in viability / metabolic activity” value in data set [2] was 100000 µM. In addition, the “4-AP-evoked” value in data set [3] is “still evoked glutamate release”. Besides, in data set [4], the “Accumulation of GM2 and GM3 immunoreactivity” value was “reduces the accumulation of GM2 and GM3 immunoreactivity”.
For “(2-hydroxypropyl)-alpha-cyclodextrin [HPACD]”, the IC50 in data set [1] is more than 100 mM. For the same molecule, in data set [3], the “4-AP-evoked” value is “not detected”. In data set [4], the “Accumulation of GM2 and GM3 immunoreactivity” value is listed as “much less effective compared to HPBCD”.
Molecule “randomly methylated alpha-cyclodextrin [RAMEA]” returned an IC50 in data set [1] of more than 60 mM. The “Concentration with influence on membrane integrity” value in data set [1] (LDH release, highest tested concentration) was 100000 µM. Moreover, in data set [2], the IC50 is approximately 90 mM and the “Concentration with significant decrease in viability / metabolic activity” value was 100000 µM. The “4-AP-evoked” value in data set [3] is “not detected”.
